Assays:
total ATXN3 protein = experiment: ATXN3 total protein assay (Mesoscale Discovery); type: cell-based, Human; details: SK-N-MC cells, 48 hours incubation, MSD assay; read-out: ATXN3 Potency - Protein IC50
Protocol: Human neuroblastoma SK-N-MC cells were seeded at 10,000 cells/well in 384 well plates one day prior to compound treatment. The concentrations of compounds were tested at appropriate doses ranging from 30 µM to 0.6 nM. After incubation for 48 hours, the cells were lysed with 25.L of lysis buffer containing protease inhibitors, and total ATXN3 protein levels were assessed by Mesoscale Discovery (MSD) assay developed with one pair of anti-ATXN3 antibodies. The capture and detect antibodies were raised in mouse and rabbit respectively. Anti-rabbit MSD-ST antibody was used for secondary antibody.
ATXN3 recombinant protein was used for standards. The readouts were captured with 35 μL of MSD read buffer and multi-array 384-well high binding plates.

ATXN3-HiBiT protein = experiment: ATXN3 HiBiT assay (luminescence, Kelly-ATXN3-HiBiT cell line); type: cell-based; details: Kelly-ATXN3-HiBiT cells, read out 48 h after addition of compound
Source text: To monitor ATXN3 protein levels by luminescence, a Kelly-ATXN3-HiBiT cell line with homozygous knock-in of HiBiT at the C-terminus of the endogenous ATXN3 gene was used (knock-in of the HiBiT-tag coding sequence SEQ ID NO. 14: 5′[…]3′ into exon 11 of ATXN3 -position 1114 of ATXN3 RefSeq NM_004993.6). Manipulations of the Kelly-ATXN3-HiBiT cell line that result in downregulation of the ATXN3-HiBiT protein (through modulation of ATXN3-HiBiT pre-mRNA splicing) can be followed by monitoring the luminescence signal of the HiBiT tag using the Nano Glo HiBiT Lytic Detection System (Promega, #N3050). Kelly-ATXN3-HiBiT cells were maintained in RPMI 1640 w/Glutamax (Gibco, #61870010), 10% FBS (Sigma Aldrich, #F8687), 1% Penicillin/Streptomycin (Gibco, #15140-122) at 37° C., 5% CO2. To assess HiBiT-luminescence signal upon compound treatment, 2000 Kelly-ATXN3-HiBiT cells were seeded per well in 384 plate format. Compounds were added 24 h after seeding. ATXN3-HiBiT-luminescence signal was read out 48 h after addition of the compound using the Nano Glo HiBiT Lytic Detection System (Promega, #N3050) according to the manufacturer's instructions. To control for cell viability, an identically prepared sister plate was read out with the CellTiter-Glo® 2.0 Assay (Promega, #G9243) according to the manufacturer's instructions. Fold changes of ATXN3-HiBiT-luminescence and of CellTiter-Glo viability signals were calculated relative to a DMSO control condition.

[1] = system: ATXN3 transcripts containing exon 4 (E4E5); experiment: ATXN3 quantitative splicing assay (qPCR, E4E5 primers/probe detecting transcripts containing exon 4); type: cell-based; details: Homo sapiens, SK-N-MC cells, 24 h treatment
Protocol: Human neuroblastoma SK-N-MC cells were plated in 384-well plates at 20,000 cells/well. Twenty-four hours after plating, cells were treated with compounds for 24 h at appropriate concentrations ranging from 30.M to 0.6 nM (0.300 DMS0). Treated cells were lysed in 15.L of lysis buffer, and cDNA was synthesized using the Fast Advanced Cells-to-Ct kit. Two L of each cDNA was used in qPCR reactions to confirm the exon 4 skipped transcripts of ATXN3. A second set of primers/probe E4E5 was used to detect the transcripts containing exon 4. The third set of primers/probe E8E9 was used to detect total gene level of ATXN3. The qPCR reactions were prepared in 384-well plates in 10 L volume, using TaqMan™ Fast Advanced Master Mix with primers and probes shown in the table below. Reactions were run in a Quant Studio 6 qPCR instrument with default settings.
The primers and probes are listed below in Table 4.

Molecule `C[C@H](F)[C@H](N)Cc1oc2c(NCc3ccco3)nc(Cl)nc2c1Cl` [Compound 16, 2-[(2R,3S)-2-amino-3-fluoro-butyl]-3,5-dichloro-7-(furfur-ylamino)-1-oxa-4,6-diaza-indene] has an IC50 (total ATXN3 protein) of 101 to 500 nM, an EC50 (ATXN3-HiBiT protein) of 0.01 to 100 nM and an IC50 [1] of 0.01 to 100 nM.
For `Clc1nc(NCc2ccccc2)c2occc2n1` [Compound 4, N-benzyl-2-chlorofuro[3,2-d]pyrimidin-4-amine], the IC50 (total ATXN3 protein) was 10000 to 40000 nM and the IC50 [1] was 10000 to 40000 nM.
Molecule `Cc1c(C[C@H](C)N)oc2c(NCc3nccs3)nc(Cl)nc12` [Compound 7] has an IC50 (total ATXN3 protein) of 10000 to 40000 nM and an IC50 [1] of 10000 to 40000 nM.
`C[C@H](F)[C@H](N)Cc1oc2c(NCc3ccccc3)nc(Cl)nc2c1Br` [Compound 19, 2-[(2R,3S)-2-amino-3-fluoro-butyl]-7-benzylamino-3-bromo-5-chloro-1-oxa-4,6-diazaindene] showed an IC50 (total ATXN3 protein) of 101 to 500 nM, an EC50 (ATXN3-HiBiT protein) of 501 to 5000 nM and an IC50 [1] of 101 to 500 nM.
Work on `C[C@H](F)[C@H](N)Cc1oc2c(NCc3cccs3)nc(Cl)nc2c1Br` [Compound 15, 2-[(2R,3S)-2-amino-3-fluoro-butyl]-3-bromo-5-chloro-7-thenylamino-1-oxa-4,6-diazaindene] yielded an IC50 (total ATXN3 protein) of 101 to 500 nM, an EC50 (ATXN3-HiBiT protein) of 101 to 500 nM and an IC50 [1] of 0.01 to 100 nM.
In the case of `C[C@H](N)Cc1oc2c(NCc3ccco3)nc(Cl)nc2c1Br` [Compound 33, 2-[(S)-2-aminopropyl]-3-bromo-5-chloro-7-(furfur-ylamino)-1-oxa-4,6-diaza-indene], the IC50 (total ATXN3 protein) is reported as 0.01 to 100 nM, the EC50 (ATXN3-HiBiT protein) is reported as 0.01 to 100 nM and the IC50 [1] is reported as 101 to 500 nM.
`C[C@H](F)[C@H](N)Cc1oc2c(NCc3ccco3)nc(Cl)nc2c1Br` [Compound 14, 2-[(2R,3S)-2-amino-3-fluoro-butyl]-3-bromo-5-chloro-7-(furfurylamino)-1-oxa-4,6-diazaindene] gave an IC50 (total ATXN3 protein) of 0.01 to 100 nM, an EC50 (ATXN3-HiBiT protein) of 0.01 to 100 nM and an IC50 [1] of 0.01 to 100 nM.
With `C#Cc1nc(NCc2ccco2)c2oc(C[C@@H](N)[C@H](C)F)c(Br)c2n1` [Compound 28, 2-[(2R,3S)-2-amino-3-fluoro-butyl]-3-bromo-5-ethynyl-7-(furfurylamino)-1-oxa-4,6-diazaindene] the IC50 (total ATXN3 protein) was 101 to 500 nM, the EC50 (ATXN3-HiBiT protein) was 101 to 500 nM and the IC50 [1] was 101 to 500 nM.
`C#Cc1nc(NCc2cccs2)c2oc(C[C@@H](N)[C@H](C)F)c(C#C)c2n1` [Compound 26] showed an IC50 (total ATXN3 protein) of 101 to 500 nM, an EC50 (ATXN3-HiBiT protein) of 101 to 500 nM and an IC50 [1] of 101 to 500 nM.
In the case of `C[C@H](F)[C@H](N)Cc1oc2c(NCc3nccs3)nc(Cl)nc2c1Br` [Compound 18, 2-[(2R,3S)-2-amino-3-fluoro-butyl]-3-bromo-5-chloro-7-{[(1,3-thiazol-2-yl)methyl]-amino}-1-oxa-4,6-diaza-indene], the IC50 (total ATXN3 protein) is reported as 101 to 500 nM, the EC50 (ATXN3-HiBiT protein) is reported as 101 to 500 nM and the IC50 [1] is reported as 101 to 500 nM.
With `C#Cc1nc(NCc2cccs2)c2oc(C[C@@H](N)[C@H](C)F)c(Br)c2n1` [Compound 27, 6-[(2R,3S)-2-amino-3-fluorobutyl]-7-bromo-2-ethynyl-N-(thiophen-2-ylmethyl)furo[3,2-d]pyrimidin-4-amine] the IC50 (total ATXN3 protein) was 101 to 500 nM, the EC50 (ATXN3-HiBiT protein) was 101 to 500 nM and the IC50 [1] was 101 to 500 nM.
For `C[C@H](N)Cc1oc2c(NCc3cccs3)nc(Cl)nc2c1Br` [Compound 32, 6-[(2S)-2-aminopropyl]-7-bromo-2-chloro-N-(thiophen-2-ylmethyl)furo[3,2-d]pyrimidin-4-amine], the IC50 (total ATXN3 protein) was 101 to 500 nM, the EC50 (ATXN3-HiBiT protein) was 101 to 500 nM and the IC50 [1] was 101 to 500 nM.
`Cc1c(C[C@H](C)N)oc2c(NCc3cccs3)nc(Cl)nc12` [Compound 11, 2-[(S)-2-aminopropyl]-5-chloro-3-methyl-7-thenyl-amino-1-oxa-4,6-diaza-indene] showed an IC50 (total ATXN3 protein) of 501 to 5000 nM and an IC50 [1] of 501 to 5000 nM.
`Cc1coc2c(NCc3ccco3)nc(Cl)nc12` [Compound 10, (furfuryl)(5-chloro-3-methyl-1-oxa-4,6-diaza-7-indenyl)-amine] was tested, and the IC50 (total ATXN3 protein) was 501 to 5000 nM and the IC50 [1] was 501 to 5000 nM.
With `C/C=C/c1cc2nc(Cl)nc(NCc3ccccc3)c2o1` [Compound 5, N-benzyl-2-chloro-6-(prop-1-en-1-yl)furo[3,2-d]pyrimidin-4-amine] the IC50 (total ATXN3 protein) was 10000 to 40000 nM and the IC50 [1] was 10000 to 40000 nM.
`C[C@H](F)[C@H](N)Cc1oc2c(NCc3cccs3)nc(Cl)nc2c1Cl` [Compound 17, 2-[(2R,3S)-2-amino-3-fluoro-butyl]-3,5-dichloro-7-thenyl-amino-1-oxa-4,6-diazaindene] was tested, and the IC50 (total ATXN3 protein) was 101 to 500 nM, the EC50 (ATXN3-HiBiT protein) was 101 to 500 nM and the IC50 [1] was 101 to 500 nM.
Molecule `C/C=C/c1cc2nc(Cl)nc(NCc3ccncc3)c2o1` [Compound 6] has an IC50 (total ATXN3 protein) of 10000 to 40000 nM and an IC50 [1] of 10000 to 40000 nM.
Work on `Cc1coc2c(NCc3nccs3)nc(Cl)nc12` [Compound 9, [(1,3-thiazol-2-yl)methyl](5-chloro-3-methyl-1-oxa-4,6-diaza-7-indenyl)amine] yielded an IC50 (total ATXN3 protein) of 10000 to 40000 nM and an IC50 [1] of 10000 to 40000 nM.
`CC(N)Cc1cc2nc(Cl)nc(NCc3ccncc3)c2o1` (centres unmarked) [Compound 1, 6-(2-aminopropyl)-2-chloro-N-(pyridin-4-ylmethyl)furo [3,2-d]pyrimidin-4-amine] showed an IC50 (total ATXN3 protein) of 10000 to 40000 nM and an IC50 [1] of 10000 to 40000 nM.
`C[C@H](F)[C@H](N)Cc1oc2c(NCc3cccs3)nc(Cl)nc2c1-c1ncco1` [Compound 34, 6-[(2R,3S)-2-amino-3-fluorobutyl]-2-chloro-7-(1,3-oxazol-2-yl)-N-(thiophen-2-ylmethyl)furo[3,2-d]pyrimidin-4-amine] showed an IC50 [1] of 501 to 5000 nM.
With `C#Cc1c(C[C@@H](N)[C@H](C)F)oc2c(NCc3cccs3)nc(Cl)nc12` [Compound 13, 6-[(2R,3S)-2-amino-3-fluorobutyl]-2-chloro-7-ethynyl-N-(thiophen-2-ylmethyl)furo[3,2-d]pyrimidin-4-amine] the IC50 (total ATXN3 protein) was 0.01 to 100 nM, the EC50 (ATXN3-HiBiT protein) was 0.01 to 100 nM and the IC50 [1] was 0.01 to 100 nM.
Work on `Clc1nc(NCc2ccncc2)c2occc2n1` [Compound 3, [(4-pyridyl)methyl](5-chloro-1-oxa-4,6-diaza-7-indenyl)-amine] yielded an IC50 (total ATXN3 protein) of 10000 to 40000 nM and an IC50 [1] of 10000 to 40000 nM.
Work on `C#Cc1c(C[C@@H](N)[C@H](C)F)oc2c(NCc3ccco3)nc(Cl)nc12` [Compound 12, 2-[(2R,3S)-2-amino-3-fluoro-butyl]-5-chloro-3-ethynyl-7-(furfurylamino)-1-oxa-4,6-diazaindene] yielded an IC50 (total ATXN3 protein) of 0.01 to 100 nM, an EC50 (ATXN3-HiBiT protein) of 0.01 to 100 nM and an IC50 [1] of 0.01 to 100 nM.
`CC(N)Cc1cc2nc(Cl)nc(NCc3ccccc3)c2o1` (centres unmarked) [Compound 2, 2-(2-aminopropyl)-7-benzyl-amino-5-chloro-1-oxa-4,6-diazaindene] gave an IC50 (total ATXN3 protein) of 10000 to 40000 nM and an IC50 [1] of 10000 to 40000 nM.
`Cc1c(C[C@H](C)N)oc2c(NCc3ccco3)nc(Cl)nc12` [Compound 8, 2-[(S)-2-aminopropyl]-5-chloro-7-(furfurylamino)-3-methyl-1-oxa-4,6-diaza-indene] gave an IC50 (total ATXN3 protein) of 501 to 5000 nM and an IC50 [1] of 501 to 5000 nM.
With `C[C@H](F)[C@H](N)Cc1oc2c(NCc3ccncc3)nc(Cl)nc2c1Br` [Compound 20, 2-[(2R,3S)-2-amino-3-fluoro-butyl]-3-bromo-5-chloro-7-{[(4-pyridyl)methyl]amino}-1-oxa-4,6-diazaindene] the IC50 (total ATXN3 protein) was 101 to 500 nM, the EC50 (ATXN3-HiBiT protein) was 0.01 to 100 nM and the IC50 [1] was 0.01 to 100 nM.
